Source: PMC8537746, “New Pyridone-Based Derivatives as Cannabinoid Receptor Type 2 Agonists” (International Journal of Molecular Sciences, 2021)

Tests used:
[1] = molecular target: CB2; parameters: method as in PMID 11597467, PMID 23623258, PMID 23395112, PMID 21702498, PMID 17004710; settings: Figure 1; cited from earlier work
[2] = test system: HL-60 cells; experiment: Neutral red uptake cell viability assay, HL-60; settings: Homo sapiens, HL-60, 72 h, read-out: IC50 HL-60
Protocol: (§1) Two different cell lines were used: HepG2 as a model of hepatic tissue; and HL-60 cells as a model of blood cells. Low levels of expression of CBR exists in normal liver however, several pathological conditions have shown high upregulation of hepatic CB2R [28].
(§2) Cell lines were grown in culture media supplemented with 10% fetal bovine serum (FBS), 100 U/mL of penicillin, 100 μg/mL of streptomycin and 1% of non-essential aminoacids. Cells between passage 5 to 10 were used in experiments. Dulbecco’s Modified Eagle Medium (DMEM) was used for HepG2 cells and Roswell Park Memorial Institute (RPMI) was used for HL-60 cells. […] All cellular lines used were provided by Dr. Mario Faúndez, Laboratory of Molecular Pharmacology, Faculty of Chemistry and Pharmacy, Pontificia Universidad Católica de Chile.
(§3) The effect of compounds in cell viability was determined by Neutral Red uptake assay. Cells were seeded in 100 μL of media at a density of 10^4 cells/well in 96-well microtiter plates. Solutions of compounds were previously prepared in DMSO and 1 μL of the corresponding solution was added to each well. The final volume of each well was adjusted to 200 μL. After 72 h of incubation, culture media was removed and 100 μL of 10 μg/mL neutral red solution prepared in culture media was added to each well and incubated for 3 h. Then, media was aspirated, the plate was washed three times with PBS 1X and 100 μL of neutral red distain solution (50:49:1 ethanol:water:glacial acetic acid) was added. The plate was placed for 15 min in a shaker and fluorescence was measured using Cytation 5 apparatus (Biotek, Winooski, VT, USA) at 530/645 nm excitation/emission wavelengths.

[3] = molecular target: T1, human cannabinoid receptor type II (CB2R) (Homo sapiens, UniProt P34972); experiment: Human CB2R cAMP agonist cellular functional assay (Eurofins Cerep); format: cell-based; settings: for % CB2R Agonist Response: 10 µM, CHO cells expressing hCB2R, percentage relative to control (100 nM WIN55212-2), rounded mean of two assays; for EC50: EC50, intracellular cAMP, CHO-hCB2R
T1 construct: host or cells: CHO cells
Protocol: Functional evaluation was carried out by Eurofins Cerep service assay: CB2 Human Cannabinoid GPCR Cell Based Agonist cAMP Assay. CHO cells stably expressing hCB2R (Eurofins Cerep) are suspended in HBSS buffer (Invitrogen) complemented with 20 mM HEPES (pH 7.4), then distributed in microplates at a density of 7.5 × 10^3 cells/well in the presence of either of the following: HBSS (basal control), the reference agonist at 100 nM (stimulated control) or various concentrations (EC50 determination), or the test compounds. Thereafter, the adenylyl cyclase activator NKH 477 is added at a final concentration of 3 μM. Following 10 min incubation at 37 °C, the cells are lysed, and the fluorescence acceptor (D2-labeled cAMP) and fluorescence donor (anti-cAMP antibody labeled with europium cryptate) are added. After 60 min at room temperature, the fluorescence transfer is measured at λex = 337 nm and λem = 620 and 665 nm using a microplate reader (Envison, Perkin Elmer). The cAMP concentration is determined by dividing the signal measured at 665 nm by that measured at 620 nm (ratio). The results are expressed as a percent of the control response to 100 nM WIN55212-2. The standard reference agonist is WIN 55212-2, which is tested in each experiment at several concentrations to generate a concentration-response curve from which its EC50 value is calculated.

[4] = test system: HepG2 cells; experiment: Neutral red uptake cell viability assay, HepG2; settings: for IC50: Homo sapiens, HepG2, 72 h, read-out: IC50 HepG2
Protocol: as §1, §2, §3

[5] = Neutral red uptake cell viability assay, HL-60; settings: human
Protocol: as §1, §2, §3

T1 sequence (P34972 whole entry): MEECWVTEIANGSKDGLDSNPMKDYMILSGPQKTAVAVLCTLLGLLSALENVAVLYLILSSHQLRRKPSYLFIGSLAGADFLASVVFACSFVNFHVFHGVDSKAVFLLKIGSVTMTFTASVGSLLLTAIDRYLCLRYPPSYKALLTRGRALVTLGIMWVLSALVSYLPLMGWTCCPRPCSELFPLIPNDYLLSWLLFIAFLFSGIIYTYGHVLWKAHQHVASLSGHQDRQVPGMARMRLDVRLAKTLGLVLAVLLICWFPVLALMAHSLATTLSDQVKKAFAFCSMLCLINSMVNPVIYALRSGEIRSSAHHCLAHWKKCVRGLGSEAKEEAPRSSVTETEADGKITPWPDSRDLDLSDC

SMILES	melting point [°C]	% CB2R Agonist Response [3] [%]	further results
CCOC(=O)CC#N [Compound 1]	–	–	Ki [1]: 0.2 nM
N#CCC(=O)NN [Compound 2]	–	–	Ki [1]: 14 nM
Cc1cc(C)n(C(=O)CC#N)n1 [Compound 3]	119 to 121	–	Ki [1]: 0.6 nM
COc1ccc2c(=O)c(C(=O)NC3CCCCC3)cn(Cc3ccc(F)cc3)c2n1 [Compound 4]	–	–	Ki [1]: 11 nM
O=C(NC1CCCCCC1)c1cn2c3c(cccc3c1=O)OCC2c1ccccc1 (stereo not drawn) [Compound 5]	–	–	Ki [1]: 0.81 nM
Cc1cc(C)n(-c2ccccc2)c(=O)c1C(=O)Nc1nc2ccccc2s1 [Compound 7a, N-(benzo[d]thiazol-2-yl)-4,6-dimethyl-2-oxo-1-phenyl-1,2-dihydropyridine-3-carboxamide]	163 to 165	–	–
Cc1cc(C)n(-c2ccccc2)c(=O)c1C(=O)Nc1nc2ccccc2[nH]1 [Compound 7b, N-(1H-benzo[d]imidazol-2-yl)-4,6-dimethyl-2-oxo-1-phenyl-1,2-dihydropyridine-3-carboxamide]	177 to 179	8	IC50 [2]: > 100000 nM; IC50 [4]: > 200000 nM
Cc1cc(C)n(-c2ccccc2)c(=O)c1C(=O)Nc1nc2ccccc2o1 [Compound 7c, N-(benzo[d]oxazol-2-yl)-4,6-dimethyl-2-oxo-1-phenyl-1,2-dihydropyridine-3-carboxamide]	228 to 230	13	–
Cc1ccc(-n2c(C)cc(C)c(C(=O)Nc3nc4ccccc4o3)c2=O)cc1 [Compound 7d, N-(benzo[d]oxazol-2-yl)-4,6-dimethyl-2-oxo-1-(4-methylphenyl)-1,2-dihydropyridine-3-carboxamide]	–	0	–
Cc1ccc(-n2c(C)cc(C)c(C(=O)Nc3nc4ccccc4[nH]3)c2=O)cc1 [Compound 7e, N-(1H-benzo[d]imidazol-2-yl)-4,6-dimethyl-2-oxo-1-(4-methylphenyl)-1,2-dihydropyridine-3-carboxamide]	198 to 200	0	–
Cc1cc(C)n(-c2ccc(O)cc2)c(=O)c1C(=O)Nc1nc2ccccc2[nH]1 [Compound 7f, N-(1H-benzo[d]imidazol-2-yl)-1-(4-hydroxyphenyl)-4,6-dimethyl-2-oxo-1,2-dihydropyridine-3-carboxamide]	176 to 178	13	–
Cc1ccc(-n2c(C)cc(C)c(C(=O)NC34CC5CC(CC(C5)C3)C4)c2=O)cc1 [Compound 8d, N-(adamantan-1-yl)-4,6-dimethyl-2-oxo-1-(4-methylphenyl)-1,2-dihydropyridine-3-carboxamide]	154 to 155	–	IC50 [2]: > 100000 nM; viability at 72 h, 200 µM [5]: 10%; EC50 [3]: 112 nM; EC50 ([3]; n = 3): 110 nM; IC50 [4]: > 200000 nM; effect on cell viability in HepG2 cells ([4]; concentrations as high as 200 μM, compared to control): did not show significant effect on cell viability

Continued, in another order:

melting point [°C]	% CB2R Agonist Response [3] [%]	SMILES	further results
139 to 140	12	Cc1cc(C)n(-c2ccccc2)c(=O)c1C(=O)NC1CCCCC1 [Compound 8a, N-cyclohexyl-4,6-dimethyl-2-oxo-1-phenyl-1,2-dihydropyridine-3-carboxamide]	–
138 to 140	–	Cc1cc(C)n(-c2ccccc2)c(=O)c1C(=O)NC1CCCCCC1 [Compound 8b, N-cycloheptyl-4,6-dimethyl-2-oxo-1-phenyl-1,2-dihydropyridine-3-carboxamide]	IC50 [2]: > 100000 nM; IC50 [4]: > 200000 nM
164 to 165	–	Cc1cc(C)n(-c2ccccc2)c(=O)c1C(=O)NC12CC3CC(CC(C3)C1)C2 [Compound 8c, N-(adamantan-1-yl)-4,6-dimethyl-2-oxo-1-phenyl-1,2-dihydropyridine-3-carboxamide]	IC50 [2]: > 100000 nM; IC50 [4]: > 200000 nM
238 to 240	0	Cc1ccc(-n2c(C)cc(C)c(C(=O)NC3CCCCCC3)c2=O)cc1 [Compound 8e, N-cycloheptyl-4,6-dimethyl-2-oxo-(4-methylphenyl)-1,2-dihydropyridine-3-carboxamide]	–
232 to 233	0	Cc1cc(C)n(-c2ccc(O)cc2)c(=O)c1C(=O)NC1CCCCCC1 [Compound 8f, N-cycloheptyl-1-(4-hydroxyphenyl)-4,6-dimethyl-2-oxo-1,2-dihydropyridine-3-carboxamide]	–
139 to 140	4	Cc1cc(C)n(-c2ccc(O)cc2)c(=O)c1C(=O)NC1CCCCC1 [Compound 8g, N-cyclohexyl-1-(4-hydroxyphenyl)-4,6-dimethyl-2-oxo-1,2-dihydropyridine-3-carboxamide]	–
